Values quoted from earlier work, collected in patent publication US20080314115A1, “Compliance Apparatus” (Zenics Limited, priority 2005, published 2008).

Conditions: after disulfiram dose

Compound: S=C=S [carbon disulphide]
- breath elimination half-life: 13.3 h
